Experimental findings from patent US6395261B1, “Walnut seed meal extract” (Gattefosse S.A., priority 1998, dated 2002) are described below.

For assay [1], the system named is human skin fibroblasts. Briefly: Incorporation of 3H-leucine into protein fractions of fibroblasts in monolayer culture. The class given is cell-based. The conditions noted are these: vitamin C reference product.
Procedure: After culture of the human skin fibroblasts until the cells become confluent, the culture medium is replaced by a medium containing 2% FCS (Fetal Calf Serum) with:
or vitamin C (reference product).
A batch of untreated control culture is performed in parallel.
After 24 hours of incubation at 37° C., labeled leucine (^3H-leucine) is added to the culture medium and the medium is left to incubate for an additional 48 hours. The following are recovered separately:
on the one hand, the culture medium,
on the other hand, the cell lysate after cellular lysis,
and finally the insoluble fraction (membranes, matrix deposited).
The macromolecules are extracted and then the incorporation of the radioactive precursor of these molecules is measured by liquid scintillation.
Assay [2] has as its system elastase. Briefly: Elastase activity of cellular extracts of fibroblasts (SANA substrate). The assay is classed as biochemical, human. The conditions noted are these: positive control at 2 mM. The method, then: This activity is evaluated on cellular extracts of fibroblasts of human dermis, isolated from the foreskin and cultured according to routine techniques at 37° C., in a humid air-CO2 (95/5%) atmosphere.
The fibroblasts are cultured in DMEM medium supplemented with fetal calf serum (10% FCS) and passaged regularly until a sufficient biomass is obtained.
To carry out the test, the cells are detached from their support by trypsinization. After centrifugation and suitable treatment, the cellular extracts are recovered.
The elastase activity of the cellular extracts was evaluated using Suc-(L-Ala)3-p-nitroanilide (SANA) as substrate. Aliquots of the cellular extract are preincubated at 37° C. in TEA (triethanolamine) buffer at pH=7.8, alone or in buffer containing various concentrations of extracts.
After incubation, a solution of SANA is added to the reaction mixture.
The optical densities at 405 nm are recorded for 1 hour 30 min to 2 hours.
A positive control was introduced into the trial (dichloroisocoumarin at 2 mM).

[3] abbreviates: macromolecules extracted from the culture medium.
Where [4] appears, read: macromolecules extracted from the intracellular medium.

The structures appear in SMILES notation.

Take `O=C1O[C@H]([C@@H](O)CO)C(O)=C1O` [Vitamin C, vitamin C]: in assay [1] (setting [3]), the “% Control” value is listed as 132 % Control and the Counts/minute is 34748 ± 2599 Counts/minute. Besides, in assay [1] (setting [4]), the “% Control” value came out at 96 % Control and the Counts/minute came to 35953 ± 4349 Counts/minute.

Consider `O=c1oc(Cl)c(Cl)c2ccccc12` [DCI, dichloroisocoumarin], for which, in assay [2] (elastase activity), the Inhibition was 37. Further, the “mU elastase/10^6 cell” value in assay [2] is listed as 0.431 mU elastase/10^6 cell.
